According to patent US5356886A, “Antiviral phosphono-alken derivatives of purines” (Beecham Group p.l.c., priority 1990, dated 1994):

How the values were obtained:
Assay type in all cases: cell-based
[1] = Cell cytotoxicity test (MTT) in peripheral human lymphocytes
Experimental: Peripheral human lymphocytes were isolated by density gradient centrifugation from blood donations of healthy volunteers. The `buffy coat`-fractions of these donations were provided by blood donation centres.
The buffy coat was diluted 1:1 with sterile phosphate buffered saline (PBS; 50 mM sodium phosphate, pH 7.4, 0,9% sodium chloride) and subsequently layered over Ficoll. Following centrifugation (30 minutes at 400×g) the supernatant was discarded and the interphase containing the lymphocytes was recovered. The lymphocytes were washed two times in PBS and were resuspended finally in cell culture medium.
A viability staining was performed by means of the trypan blue dye-exclusion method. The concentration of cells in the suspension and the percentage of viable cells were calculated. […]
The lymphocytes were cultivated in an incubator with a humidified atmosphere and 5% CO2 for 48 to 64 hours at 37° C. Following this incubation period, cells were harvested by centrifugation, resuspended in cell culture medium and counted. […]
Survival and proliferation of the lymphocytes grown in the presence of the compound were measured by a quantitative colorimetric assay. […] The amount of product which is a function of cell number and metabolic cellular activity was quantified photometrically. By this assay, potential cytotoxic and cytostatic effects of compounds towards lymphocytes were detected precisely. […]

[2] = Cytotoxicity for the cell monolayers in the FIV test; settings: cat, crandell feline kidney cells, no cytotoxicity noted with concentrations up to this value, read-out: cytotoxicity for the cell monolayers
Experimental: Drug stocks were diluted to the appropriate concentration, in medium (e.g. 10 mg/ml to 200 μg/ml). 150 μl of each drug was dispersed in triplicate, across the top row of a microtitre plate (150 μl of media for virus and cell control, vc and cc). 100 μl of medium was dispersed into all other wells. The wells were serially diluted moving down the plate, removing 50 μl from each well and transferring to the next row. 50 μl was discarded from the bottom wells.
Trypsinisation was carried out from a confluent cell monolayer of Crandell Feline Kidney cells, in 10% trypsin, followed by resuspension in media at 1×10^6 per ml, ensuring that a single cell suspension is achieved. (Media: 90% 1×RPMI, 25 mM hepes buffer; 10% Foetal calf serum; 2% Glutamine; 2% penecillin/streptomycin.)
FIV Glasgow 8 virus was diluted to 4× the required virus challenge in medium (40 TCID50 /ml). The virus infected medium was mixed with an equal volume of cell suspension, 100 μl of which was aliquoted into each well of the drug plate, except cell control. 100 μl of cell suspension at 5×10^4 per ml was added to the latter. This gives a final cell concentration of 2.5×10^4 per ml, and drug range 100-0.03 μg/ml. The plates were incubated at 37° C., 5% CO2 in an air humidified incabator for 11-14 days. The cells were fixed by immersing the plates in formoli saline (10% formaldehyde; 10% 1.5M NaCl; 80% water) for 1 hour minimum. The cells were stained with 10% crystal violet for 15 minutes.
The assay was scored by looking for presence of syncitia and, virus induced cytopathic effect in the cell monolayers, under a microscope. Results are given as the minimum concentration of drug inhibiting syncitial production, minimum inhibitory concentration, MIC.

HIV = HIV Suppression test, viral antigen (core protein p24, sandwich ELISA) in peripheral human lymphocytes; settings: Human immunodeficiency virus 1, Lymphocyte, 96 h; Concn. 0.1 μM; read-out: % Inhibition on Day 4 after infection, Viral Antigen
Experimental: Peripheral human lymphocytes were prepared, cultivated, and harvested as above. Following the determination of the lymphocyte surface markers, unstimulated and mitogen stimulated cells were combined in a ratio of 1:2.
Under safety conditions these cells are infected with a standard preparation of HIV. The cells are sedimented by centrifugation. The supernatant was discarded and cells were resuspended in the HIV inoculum.
This inoculum is a liquid suspension of HIV-1 strain virus, pretested and adjusted to a titer that results in a synthesis of viral core protein p24 of >100 ng/ml at day four following infection of human lymphocytes according to the protocol.
3×10^8 lymphocytes were resuspended in 1 ml HIV inoculum and incubated at 37° C. for 60 minutes. Subsequently, the cells were washed two times with 50 ml of culture medium and resuspended in culture medium containing 10 units/ml of human recombinant interleukin-2 to yield a cell concentration of 2×10^6 cells/ml. 100 μof this cell suspension was added to each well of the microtiter plates containing the diluted solutions of the compounds. The microtiter plates were cultivated in an incubator with a humidified atmosphere and 5% CO2 at 37° C.
Accordingly, a fraction of lymphocytes was mock-infected with the same virus preparation that was heat inactivated (30 minutes at 56° C.) prior to infection.
On each of the days 2,3 and 4 post infection one of the microtiter plates which had been established in triplicate was prepared for determination of viral replication. Viral RNA is determined within the cells whereas the viral core protein p24 was detected in the supernatant of the lymphocyte culture.
Accordingly, 150 μl of supernatant were removed from each well and transferred to the well of a microtiter plate containing 50 μl/well of SDS (sodium dodecylsulfate, 0.08%). These plates were stored frozen. 50 μl of stop solution (1% SDS, 20 mM sodium acetate, pH 5.0, and 200 μg/ml heparin) were added to the cells remaining in each well. The plates were stored frozen.
The concentration of p24 synthesized by the HIV infected cells was determined by means of a sandwich ELISA, while the concentration of viral RNA was quantitated by nucleic acid hybridisation, using a ^32 P-labelled DNA probe for the gag/pol region of the viral genome. Absolute levels of viral antigen and RNA in drug treated samples were compared with untreated, virus-infected controls and the percentage inhibition calculated.

Nc1nc2c(ncn2OCC/C=C/P(=O)(O)O)c(=O)[nH]1 [Example 1, (E)-9-(4-phosphonobut-3-enyloxy)guanine]
CC50 at 96 h [1]: 1 µM | cytotoxicity at 0.1 µM ([1]; at 0.1 μM, read-out: Slight toxicity (inhibition)): 18% | MCC [2]: > 100 µg/mL | inhibition at 0.1 µM (HIV): 93%
